Results as given in patent US10570463B2, “Nucleic acid modifying agents and uses thereof” (BIOTIUM, INC., priority 2014, dated 2020).
Entries after “also recorded” stand apart in the source; their conditions may differ.

Columns and labels:
[1] = test system: Staphylococcus epidermidis; test: Viability PCR (dCt, 16S rDNA) after dye treatment and photolysis, cultured Staphylococcus epidermidis; assay type: cell-based; details: 50 uM dye, 3D; for dCt, modification of DNA in live cells: live S. epidermidis, 470 nm light 15 min, FIG. 1, 2B
Description: Escherichia coli, Salmonella enterica, and Bacillus subtilis were cultured in tryptic soy broth (TSB). Staphylococcus epidermidis was cultured in nutrient broth (NB). Bacteria were cultured overnight at 37° C. The following day, the absorbance of the cultures at 600 nm was measured and the cultures were diluted to OD600=1.0 in growth media. Bacteria cultures were pipetted into 1.5 mL screw-top tubes at 400 uL per tube. For dead cell samples, tubes were placed in a 95° C. heat block for 5 minutes, and then allowed to return to room temperature. PMA products (cat #40013 and 40019, Biotium) and selected compounds of the disclosure (104.1, 014, or 020, where indicated) were diluted to 2.5 mM in water, and then 8 uL was added to the bacterial culture for a final concentration of 50 uM. Cultures were incubated on a rocker in the dark at room temperature for 10 minutes, and then exposed to 470 nm wavelength light in the PMA-Lite LED device for 15 minutes. Samples were centrifuged at 5000×g for 10 minutes and the supernatant was aspirated off. DNA was then purified from bacterial pellets using the Qiagen Blood and Tissue kit and eluted in 100 uL elution buffer.
PCR was performed using the universal primers DG74 and RW01 which amplify a 370-bp region of the 16S rDNA. Forward Primer DG74 sequence: 5′-AGG AGG TGA TCC AAC CGC A-3′. Reverse Primer RW01 sequence: 5′-AACTGGAGGAAGGTGGGGAT-3′. The following PCR mix was prepared for each sample: 12.5 uL Fast EvaGreen Master Mix (Biotium), 1 uL 5 uM primer mix, 9.5 uL water, and 2 uL isolated bacterial DNA. […] 25 sec, 72° C., acquiring fluorescence after this step. Using the Rotor-Gene Q software, normalized fluorescence and Ct values were calculated. The change in Ct (dCt) caused by a dye was calculated by subtracting the Ct of the untreated bacteria from the Ct of the dye-treated bacteria.
(§1) Live Staphylococcus epidermidis (a gram-positive bacteria) was either left untreated, treated with one of two versions of commercial PMA products (cat #40013 and 40019, Biotium), or treated with a compound of the present disclosure (compound 104.1, 014, or 020). Viability PCR was performed and the effect of each dye was measured by determining the dCt. The dCt was calculated by subtracting the Ct of untreated sample from dye-treated sample. […]
as §1, with “Live or dead Bacillus subtilis (FIG. 2A) or” for “Live”, “(FIG. 2B) were” for “(a gram-positive bacteria) was”, “cat #40019,” for “40019,”, “Compound 104.1.” for “a compound of the present disclosure (compound 104.1, 014, or 020).”

Bacillus subtilis = test: Viability PCR (dCt, 16S rDNA) after dye treatment and photolysis, cultured Bacillus subtilis; assay type: cell-based; details: 50 uM dye, compared with PMA, FIG. 2A, 3C
Description: (§2) Escherichia coli, Salmonella enterica, and Bacillus subtilis were cultured in tryptic soy broth (TSB). Staphylococcus epidermidis was cultured in nutrient broth (NB). Bacteria were cultured overnight at 37° C. The following day, the absorbance of the cultures at 600 nm was measured and the cultures were diluted to OD600=1.0 in growth media. Bacteria cultures were pipetted into 1.5 mL screw-top tubes at 400 uL per tube. For dead cell samples, tubes were placed in a 95° C. heat block for 5 minutes, and then allowed to return to room temperature. […]
(§3) PCR was performed using the universal primers DG74 and RW01 which amplify a 370-bp region of the 16S rDNA. […] 25 sec, 72° C., acquiring fluorescence after this step. Using the Rotor-Gene Q software, normalized fluorescence and Ct values were calculated. The change in Ct (dCt) caused by a dye was calculated by subtracting the Ct of the untreated bacteria from the Ct of the dye-treated bacteria.
as §1, with “Live or dead Bacillus subtilis (FIG. 2A) or” for “Live”, “(FIG. 2B) were” for “(a gram-positive bacteria) was”, “cat #40019,” for “40019,”, “Compound 104.1.” for “a compound of the present disclosure (compound 104.1, 014, or 020).”

Escherichia coli = test: Viability PCR (dCt, 16S rDNA) after dye treatment and photolysis, cultured Escherichia coli; assay type: cell-based; details: 50 uM dye, compared with PMA, FIG. 3A
Description: as §2, §3
(§4) Live or dead Escherichia coli (FIG. 3A), Salmonella enterica (FIG. 3B), Bacillus subtilis (FIG. 3C) or Staphylococcus epidermidis (FIG. 3D) were either left untreated, treated with PMA, or treated with Compound 014. Viability PCR was performed and the effect of each dye was measured by determining the dCt. The dCt was calculated by subtracting the Ct of untreated sample from dye-treated sample. […]

Salmonella enterica = test: Viability PCR (dCt, 16S rDNA) after dye treatment and photolysis, cultured Salmonella enterica; assay type: cell-based; details: 50 uM dye, compared with PMA, FIG. 3B
Description: as §2, §3, §4

swabbed S. epidermidis = test: Viability PCR (dCt) in Staphylococcus epidermidis collected by swabbing; assay type: cell-based; details: live and heat-killed S. epidermidis dried on plastic and swabbed; FIG. 5
Description: As in Example 16, Staphylococcus epidermidis was cultured in nutrient broth (NB) overnight at 37° C. The following day, the absorbance of the cultures at 600 nm was measured and the cultures were diluted to OD600=1.0 in growth media. For dead cell samples, bacteria were placed in a 95° C. heat block for 5 minutes, and then allowed to return to room temperature. 1200 uL of live or dead bacteria were spread separately onto sterile plastic petri dishes and air-dried for four hours. To mimic a common method of bacterial sample collection, a sterile cotton swab was moistened with NB, swabbed on the plate and swirled in a tube containing 1200 uL NB. This process was repeated 3 times each for live and dead bacteria, until most of the bacteria from the plate had been transferred into the media. 400 uL of swabbed bacteria was pipetted into tubes, and either left untreated, treated with PMA dye, or treated with Compound 014, as described in Example 16. Viability PCR was performed and the effect of each dye was measured by determining the dCt. The dCt was calculated by subtracting the Ct of untreated sample from dye-treated sample. […] The dCt values are shown above each bar.

[2] = test system: relatively short amplicons; details: cited from earlier work
[3] = test system: Salmonella serovar Enteritidis; details: cited from earlier work
[4] = test system: Mycobacterium avium subspecies paratuberculosis (MAP); details: PMA qPCR; cited from earlier work
Jurkat cells [5] = test: Viability staining of live and heat-killed Jurkat cells, flow cytometry; assay type: cell-based, human; details: 1 uM
Description: Jurkat cells were maintained in RPMI media supplemented with 10% fetal bovine serum, 10 mM HEPES, and 1 mM sodium pyruvate. Cells were counted and diluted to 1.0×10^6 cells/mL in growth media. Cells were pelleted by centrifugation at 350×g and resuspended in PBS. Half of the cells were heat-killed by incubation in a 56° C. water bath for 45 minutes. After they had cooled to room temperature, live and dead cells were combined in a 1:1 ratio, pelleted and washed once with PBS, and resuspended in PBS at 1.0×10^6 cells/mL. Aliquots of 1 mL were pipetted into 1.5 mL microcentrifuge tubes. Working in the dark, PMA and compound 104.1 were diluted to 1 mM in water. 1 uL of the indicated compound was added to 1 mL of cells for a final concentration of 1 uM. Cells were incubated in the dark, rocking, for 10 minutes, then exposed to light in the PMA-Lite for 15 minutes. Cells were transferred to FACS tubes and pelleted. Half of the tubes were placed at 4° C. in the dark (unfixed). […]
Stained cells were analyzed by flow cytometry on a BD LSRII. For detection of PMA and compound 104.1 staining, samples were excited with the 488 nm laser, and the signal was detected in the PE-Texas Red channel. Flow cytometry data was analyzed using FlowJo software from […]. […]

Staphylococcus aureus = details: samples collected by swabbing from surfaces; cited from earlier work
Jurkat cells [6] = test: Viability staining of live and heat-killed Jurkat cells, fluorescence microscopy; assay type: cell-based, human; details: Cy3 filter
Description: 1:1 mixtures of live and heat-killed Jurkat cells were prepared and treated with PMA, as described in Example 21. The cells were transferred to a black optical bottom 96-well plate and imaged on an Olympus IX71 inverted fluorescence microscope using a Cy3 filter cube and Retiga 2000R Fast 1394 digital CCD camera with 300 msec exposure time. Imaging results are provided in FIG. 7A-D. The stained cells were either left unfixed (FIGS. 7A and B) or fixed and permeabilized (FIGS. 7C and D). Fluorescence images (FIGS. 7A and C) show stained cells, while merged fluorescence/phase contrast images (FIGS. 7B and D) show stained and unstained cells.

Compound | dCt, effect on dead cells ([1]; heat-killed S. epidermidis, compared with PMA, FIG. 2B) | dCt, modification of DNA in live cells [1] | dCt, effect on dead cells (Bacillus subtilis; heat-killed B. subtilis) | dCt, effect on live cells (Bacillus subtilis; live B. subtilis) | dCt, effect on dead cells (Escherichia coli; heat-killed E. coli) | dCt, effect on live cells (Escherichia coli; live E. coli) | dCt, effect on dead cells (Salmonella enterica; heat-killed S. enterica) | dCt, effect on live cells (Salmonella enterica; live S. enterica) | live/dead discrimination by dCt (swabbed S. epidermidis) | effect of PMA treatment on amplification of short amplicons [2] | suppression of qPCR signal from killed bacteria ([3]; killed Salmonella serovar Enteritidis) | entry of dye into viable cells ([3]; viable Salmonella serovar Enteritidis) | entry of dye into viable cells [4] | staining of live and dead cells after fixation and permeabilization (Jurkat cells [5]; 2% formaldehyde, 0.1% Triton X-100, FIG. 6B, 6D) | staining of live and dead cells, unfixed (Jurkat cells [5]; unfixed cells, 488 nm laser, PE-Texas Red channel, FIG. 6A, 6C) | determination of amount of living cells (Staphylococcus aureus) | fluorescence discrimination of stained and unstained cells, fixed and permeabilized (Jurkat cells [6]; fixed and permeabilized cells, FIG. 7C, 7D) | fluorescence discrimination of stained and unstained cells, unfixed (Jurkat cells [6]; unfixed cells, FIG. 7A, 7B)
C[N+](C)(C)CCNC(=O)CCOCCOCCOCCOCCNC(=O)CCCCC[n+]1c(-c2ccccc2)c2cc(N)ccc2c2ccc(N=[N+]=[N-])cc21 [Compound 014] | greater effect on dead cells | little to none; also recorded: less of an effect on live cells | greater effect on dead cells | less of an effect on live cells | greater effect on dead cells | less of an effect on live cells | greater effect on dead cells | less of an effect on live cells | showed a large difference between live and dead cells | – | – | – | – | – | – | – | – | –
[N-]=[N+]=Nc1ccc2c3ccc(N)cc3c(-c3ccccc3)[n+](CCCCCC(=O)NCCOCCOCCOCCOCCC(=O)N[C@@H](CS(=O)(=O)[O-])C(=O)O)c2c1 [Compound 020] | – | little to none | – | – | – | – | – | – | – | – | – | – | – | – | – | – | – | –
CC[N+](C)(CC)CCC[n+]1c(-c2ccccc2)c2cc(N=[N+]=[N-])ccc2c2ccc(N)cc21 [PMA, propidium monoazide] | – | causes some modification of DNA | – | – | – | – | – | – | did not function well to discriminate live and dead | not affected by PMA treatment | ineffective in suppressing qPCR signal from the killed bacteria | found to enter viable Salmonella serovar Enteritidis | found to enter viable MAP | increase in staining of live cells (loss of specificity) | bright, specific staining of dead cells | does not allow the determination of amount of living cells | PMA staining is retained after fixation, with clear discrimination between PMA-positive and PMA-negative cells | greater difference in fluorescence intensity between PMA-positive and PMA-negative cells
